Experimental data from patent US20020192821A1, “Increased functional activity and/or expression of ABC transporters protects against the loss of dopamine neurons associated with Parkinson's disease” (Active Pass Pharmaceuticals, Inc., priority 2001, published 2002).

What was measured:
ABCG4 transporter = biological target: T1, ABCG4 transporter (Homo sapiens, UniProt Q9H172); assay: Dopamine-induced cytotoxicity (MTT assay) in hDAT cells transiently transfected with ABCG4, in the presence of ABC transporter inhibitors; assay type: cell-based; conditions: hDAT-SK-N-MC cells transfected with ABCG4, DA 50 μM for 24 hours, glipizide 250 μM or probenecid 500 μM added two hours prior to DA, FIG. 2
T1 construct: expressed in transfected cells; host or cells: hDAT-SK-N-MC (human neuroblastoma SK-N-MC stably expressing hDAT), transient transfection, pCEP4 or pcDNA3.1

ABCC5 transporter = ABCC5 transporter (Homo sapiens, UniProt O15440); conditions: hDAT-SK-N-MC cells transfected with ABCC5; DA 50 μM for 24 hours; glipizide 250 μM or probenecid 500 μM added two hours prior to DA; MTT; FIG. 2
Chain of ABCC5 transporter (O15440 whole entry): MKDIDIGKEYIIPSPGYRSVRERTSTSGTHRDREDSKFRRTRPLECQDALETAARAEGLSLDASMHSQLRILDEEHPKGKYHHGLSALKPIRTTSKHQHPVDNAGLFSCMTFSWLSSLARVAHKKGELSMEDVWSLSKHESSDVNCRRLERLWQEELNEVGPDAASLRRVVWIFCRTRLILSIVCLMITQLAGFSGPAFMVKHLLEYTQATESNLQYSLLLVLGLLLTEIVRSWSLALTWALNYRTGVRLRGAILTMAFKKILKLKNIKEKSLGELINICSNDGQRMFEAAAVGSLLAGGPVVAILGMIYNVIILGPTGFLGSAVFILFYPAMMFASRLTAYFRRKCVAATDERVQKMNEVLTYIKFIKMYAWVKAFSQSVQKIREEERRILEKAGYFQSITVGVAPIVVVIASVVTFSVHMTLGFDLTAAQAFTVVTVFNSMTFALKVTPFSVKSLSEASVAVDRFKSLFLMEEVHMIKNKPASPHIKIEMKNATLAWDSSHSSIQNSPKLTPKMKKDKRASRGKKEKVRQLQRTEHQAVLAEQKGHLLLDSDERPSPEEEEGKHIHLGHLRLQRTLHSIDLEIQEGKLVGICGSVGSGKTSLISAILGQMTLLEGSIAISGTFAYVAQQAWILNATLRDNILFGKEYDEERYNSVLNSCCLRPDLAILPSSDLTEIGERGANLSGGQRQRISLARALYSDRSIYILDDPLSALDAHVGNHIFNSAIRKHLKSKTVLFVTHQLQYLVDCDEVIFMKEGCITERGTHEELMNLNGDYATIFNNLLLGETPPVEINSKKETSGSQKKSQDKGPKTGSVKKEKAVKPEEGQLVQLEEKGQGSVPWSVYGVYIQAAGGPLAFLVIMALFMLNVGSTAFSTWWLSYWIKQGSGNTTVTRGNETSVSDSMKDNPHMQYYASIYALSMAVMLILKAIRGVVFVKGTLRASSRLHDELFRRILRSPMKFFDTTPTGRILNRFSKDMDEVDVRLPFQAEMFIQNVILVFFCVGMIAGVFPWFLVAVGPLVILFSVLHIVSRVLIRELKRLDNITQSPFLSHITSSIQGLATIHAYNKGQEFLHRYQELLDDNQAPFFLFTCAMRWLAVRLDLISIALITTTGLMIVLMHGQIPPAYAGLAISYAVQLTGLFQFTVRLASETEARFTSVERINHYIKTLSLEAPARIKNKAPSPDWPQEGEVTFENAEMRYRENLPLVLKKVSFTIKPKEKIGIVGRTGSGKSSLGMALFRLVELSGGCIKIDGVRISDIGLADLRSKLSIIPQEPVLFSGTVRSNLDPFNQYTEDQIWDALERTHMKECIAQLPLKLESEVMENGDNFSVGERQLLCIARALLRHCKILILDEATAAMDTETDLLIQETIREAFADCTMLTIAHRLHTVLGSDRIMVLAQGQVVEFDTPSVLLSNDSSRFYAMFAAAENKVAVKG

T1 sequence (Q9H172 whole entry): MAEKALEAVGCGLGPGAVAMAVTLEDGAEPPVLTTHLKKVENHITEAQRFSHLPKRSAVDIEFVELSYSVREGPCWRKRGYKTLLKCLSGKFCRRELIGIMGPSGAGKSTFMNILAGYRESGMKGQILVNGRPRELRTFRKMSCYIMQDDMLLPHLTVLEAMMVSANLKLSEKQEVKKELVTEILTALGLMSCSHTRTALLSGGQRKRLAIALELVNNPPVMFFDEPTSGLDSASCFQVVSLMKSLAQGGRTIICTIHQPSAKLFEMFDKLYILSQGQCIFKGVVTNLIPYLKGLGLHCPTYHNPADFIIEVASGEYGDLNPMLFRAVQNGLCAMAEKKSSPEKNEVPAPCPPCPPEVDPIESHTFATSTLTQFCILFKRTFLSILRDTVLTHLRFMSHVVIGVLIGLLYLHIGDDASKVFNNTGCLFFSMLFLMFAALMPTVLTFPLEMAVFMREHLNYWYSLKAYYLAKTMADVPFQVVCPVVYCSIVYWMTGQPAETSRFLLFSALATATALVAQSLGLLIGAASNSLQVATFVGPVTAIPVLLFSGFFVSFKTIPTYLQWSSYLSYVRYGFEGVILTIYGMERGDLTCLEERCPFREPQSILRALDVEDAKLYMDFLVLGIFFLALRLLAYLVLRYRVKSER

Structure (SMILES): CCCN(CCC)S(=O)(=O)c1ccc(C(=O)O)cc1 [probenecid]
- effect on the protective effect of ABCG4 against dopamine-induced toxicity (ABCG4 transporter): reversed the protective effect
- effect on the protective effect of ABCC5 against dopamine-induced toxicity (ABCC5 transporter): reversed the protective effect
